Test results from patent US20100056564A1, “Association of an anti-atherothrombotic agent and an anti-platelet-aggregation agent” (LES LABORATOIRES SERVIER, priority 2003, published 2010).

System: collagen-induced platelet aggregation
Assay: Inhibition of collagen-induced platelet aggregation ex vivo
Assay type: in vivo, humans
Details: collagen 5 μg/ml; citrated platelet-rich plasma (PRPc), aggregometer; oral administration to 18 volunteers; compound A 10 mg, clopidogrel 75 mg
Procedure: Measurement of the Inhibition of Collagen-Induced Platelet Aggregation:
10 mg of compound A and 75 mg of clopidogrel were administered orally for three days to 18 volunteers previously treated with 75 mg of clopidogrel for 7 days. The effect of the association of compound A and clopidogrel was compared with the effects of compound A and clopidogrel administered separately.
In the course of the test, the percentage inhibition of platelet aggregation ex vivo induced by collagen (5 μg/ml) was calculated by measuring the platelet aggregation on citrated platelet-rich plasma (PRPc) with the aid of an aggregometer.

## COC(=O)[C@H](c1ccccc1Cl)N1CCc2sccc2C1 [clopidogrel]
  percentage inhibition of platelet aggregation ex vivo induced by collagen: 11%
